Reference: ChEMBL document CHEMBL5390199, “Discovery of novel N-aryl-2-trifluoromethyl-quinazoline-4-amine derivatives as the inhibitors of tubulin polymerization in leukemia cells” (Eur J Med Chem, 2023)
pIC50: −log10 of the molar value. Activity calls are given as the source filed them. No cut-off for these calls is given here.

Tests used:
HeLa = test: Cytotoxicity against human HeLa cells assessed as inhibition of cell growth incubated for 48 hrs by MTT assay; assay type: functional, cell-based; conditions: for pIC50: Homo sapiens, HeLa, 48 h, read-out: IC50
HEL [1] = test: Cytotoxicity against human HEL cells assessed as inhibition of cell growth incubated for 48 hrs by MTT assay; assay type: functional, cell-based
K562 [2] = test: Cytotoxicity against human K562 cells assessed as inhibition of cell growth incubated for 48 hrs by MTT assay; assay type: functional, cell-based; conditions: K562, 48 h
LNCaP = test: Cytotoxicity against human LNCaP cells assessed as inhibition of cell growth incubated for 48 hrs by MTT assay; assay type: functional, cell-based
Tubulin (Homo sapiens) [3] = target: T1, Tubulin (Homo sapiens) (UniProt P68371+Q9H4B7+P0DPH7+P68366+Q13509+Q71U36+P04350+Q3ZCM7+P07437+P68363+Q9BQE3+Q6PEY2+Q13885+Q9BVA1+Q9BUF5); test: Induction of microtubule depolymerization in human K562 cells assessed as aggregation of microtubule fibers at 100 nM incubated for 24 hrs by confocal microscopic analysis; assay type: cell-based
K562 [4] = test: Induction of morphological changes in human K562 cells by fluorescence microscopic analysis; assay type: functional, cell-based
HEL [5] = test: Induction of apoptosis in human HEL cells at 0.5 uM incubated for 48 hrs by annexin V-FITC/propidium iodide staining based flow cytometry relative to control; assay type: functional
[6] = Selectivity index, ratio of IC50 for cytotoxicity against human L02 cells to IC50 for cytotoxicity against human HEL cells
HEL [7] = test: Induction of cell cycle arrest in human HEL cells assessed as reduction in accumulation of cells at S phase incubated for 12 hrs by flow cytometry; assay type: functional, cell-based
HEL [8] = test: Induction of cell cycle arrest in human HEL cells assessed as increase in accumulation of cells at G2/M phase incubated for 12 hrs by flow cytometry; assay type: functional, cell-based
HEL [9] = test: Induction of morphological changes in human HEL cells by fluorescence microscopic analysis; assay type: functional, cell-based
HUVEC = test: Antiangiogenic activity against human HUVEC cells assessed as inhibition of cell migration at 0.5 uM measured after 24 hrs by scratch wound healing assay; assay type: functional, cell-based
HEL [10] = test: Induction of cell cycle arrest in human HEL cells assessed as reduction in accumulation of cells at G0/G1 phase incubated for 12 hrs by flow cytometry; assay type: functional, cell-based
K562 [11] = test: Induction of apoptosis in human K562 cells at 0.5 uM incubated for 48 hrs by annexin V-FITC/propidium iodide staining based flow cytometry relative to control; assay type: functional
[12] = Cytotoxicity against human L02 cells assessed as inhibition of cell growth incubated for 48 hrs by MTT assay; assay type: toxicity, cell-based
K562 [13] = test: Induction of cell cycle arrest in human K562 cells assessed as reduction in accumulation of cells at S phase incubated for 12 hrs by flow cytometry; assay type: functional, cell-based
[14] = Selectivity index, ratio of IC50 for cytotoxicity against human L02 cells to IC50 for cytotoxicity against human K562 cells; assay type: toxicity, cell-based; conditions: L02 cells and K562 cells, read-out: Ratio IC50
K562 [15] = test: Induction of cell cycle arrest in human K562 cells assessed as reduction in accumulation of cells at G0/G1 phase incubated for 12 hrs by flow cytometry; assay type: functional, cell-based
K562 [16] = test: Induction of cell cycle arrest in human K562 cells assessed as increase in accumulation of cells at G2/M phase incubated for 12 hrs by flow cytometry; assay type: functional, cell-based
[17] = target: Tubulin beta (Homo sapiens) (UniProt P68371+Q9H4B7+Q13509+P04350+Q3ZCM7+P07437+Q13885+Q9BVA1+Q9BUF5+A6NNZ2); test: Binding affinity to beta-tubulin colchicine binding site in human K562 cells assessed as inhibition of EBI-beta-tubulin adduct band formation preincubated for 2 hrs followed by EBI addition and measured after 1.5 hrs by EBI competition based Western blot analysis; assay type: cell-based; conditions: dose 0.2-25 µM, time 3.5 hrs
Tubulin (Homo sapiens) [18] = target: T1, Tubulin (Homo sapiens); test: Induction of microtubule depolymerization in human K562 cells at 500 nM incubated for 24 hrs by confocal microscopic analysis; assay type: cell-based
Tubulin (Homo sapiens) [19] = target: T1, Tubulin (Homo sapiens); test: Inhibition of microtubule polymerization in human K562 cells at 0.5 uM measured for 60 mins; assay type: cell-based

| Compound | pIC50 (HeLa) | pIC50 (HEL [1]) | pIC50 (K562 [2]) | pIC50 (LNCaP) | Activity (K562 [4]) | Activity (HEL [9]) | Activity (HUVEC) | further results |
| --- | --- | --- | --- | --- | --- | --- | --- | --- |
| C=CC(=O)Nc1cc(N(C)c2nc(C(F)(F)F)nc3ccc(F)cc23)ccc1OC | 6.78 | 6.37 | 6.01 | 6.40 | – | – | – | – |
| COc1ccc(N(C)c2nc(C(F)(F)F)nc3ccc(F)cc23)cc1NC(=O)CCl | 7.43 | 6.23 | 5.86 | 6.59 | – | – | – | – |
| CNc1cc(N(C)c2nc(C(F)(F)F)nc3ccc(F)cc23)ccc1OC | 7.06 | 6.56 | 5.65 | 6.18 | – | – | – | – |
| Cc1ccc2nc(C(F)(F)F)nc(N(C)c3ccc4c(ccn4C)c3)c2c1 | 5.88 | 6.00 | 5.92 | 6.02 | – | – | – | – |
| COc1cc2c(c(OC)c1OC)-c1ccc(OC)c(=O)cc1[C@@H](NC(C)=O)CC2 [COLCHICINE] | 7.82 | 6.81 | 6.01 | 6.61 | – | – | – | – |
| COc1ccc(N(C)c2nc(C(F)(F)F)nc3cc(OC)c(O)cc23)cc1 | – | 5.35 | 5.60 | 5.79 | – | – | – | IC50 (HeLa; hela): Not Active |
| COc1cc2nc(C(F)(F)F)nc(N(C)c3ccc4c(ccn4C)c3)c2cc1O | 5.95 | 6.33 | 5.65 | 6.32 | – | – | – | – |
| CC(=O)O[C@H]1C(=O)[C@@]2(C)[C@H]([C@H](OC(=O)c3ccccc3)[C@]3(O)C[C@H](OC(=O)[C@H](O)[C@@H](NC(=O)c4ccccc4)c4ccccc4)C(C)=C1C3(C)C)[C@]1(OC(C)=O)CO[C@@H]1C[C@@H]2O [PACLITAXEL] | 8.22 | 6.70 | 6.06 | 7.24 | – | – | – | Activity (Tubulin (Homo sapiens) [3]): Active |
| COc1ccc(N(C)c2nc(C(F)(F)F)nc3ccc(F)cc23)cc1NC(C)=O | 7.34 | 5.95 | 5.80 | 6.09 | – | – | – | – |
| COc1ccc(N(C)c2nc(C(F)(F)F)nc3ccc(C)cc23)cc1 | 6.85 | 7.47 | 5.48 | 6.63 | Active | Active | Active | Activity (HEL [5]): 29.2%; Ratio IC50 [6]: 3.38; Activity (HEL [7]): Active; Activity (HEL [8]): Active; Activity (HEL [10]): Active |
| COc1ccc(N(C)c2nc(C(F)(F)F)nc3ccc(Cl)cc23)cc1[N+](=O)[O-] | 6.00 | 6.40 | 6.75 | 6.23 | Active | Active | Active | Activity (K562 [11]): 12.7%; IC50 at 48 h [12]: 570 nM; Activity (K562 [13]): Active; selectivity ratio [14]: 3.22; Activity (K562 [15]): Active; Activity (K562 [16]): Active |
| COc1ccc(N(C)c2nc(C(F)(F)F)nc3ccc(F)cc23)cc1 | 6.96 | 7.00 | 6.58 | 6.42 | Active | Active | Active | Activity (K562 [11]): 19.9%; IC50 at 48 h [12]: 1950 nM; Activity (K562 [13]): Active; Activity (HEL [5]): 32.3%; Activity [17]: Dose-Dependent Effect; Ratio IC50 [6]: 19.7; Activity (HEL [7]): Active; selectivity ratio [14]: 7.36; Activity (K562 [15]): Active; Activity (HEL [8]): Active; Activity (Tubulin (Homo sapiens) [18]): Active; Activity (K562 [16]): Active; Activity (HEL [10]): Active; Activity (Tubulin (Homo sapiens) [19]): Active |
| COc1ccc(N(C)c2nc(C(F)(F)F)nc3ccc(Cl)cc23)cc1 | 6.48 | 6.53 | 6.53 | 6.84 | Active | Active | Active | Activity (K562 [11]): 19.7%; IC50 at 48 h [12]: 323 nM; Activity (K562 [13]): Active; Activity (HEL [5]): 31%; Ratio IC50 [6]: 8.28; Activity (HEL [7]): Active; selectivity ratio [14]: 1.1; Activity (K562 [15]): Active; Activity (HEL [8]): Active; Activity (K562 [16]): Active; Activity (HEL [10]): Active |
| CCNc1cc(N(C)c2nc(C(F)(F)F)nc3ccc(F)cc23)ccc1OC | 6.70 | 5.16 | 5.62 | 5.59 | – | – | – | – |
| CN(c1ccc2c(ccn2C)c1)c1nc(C(F)(F)F)nc2ccc(F)cc12 | 7.66 | 6.44 | 6.35 | 7.02 | Active | Active | Active | Activity (K562 [11]): 20.3%; IC50 at 48 h [12]: 2830 nM; Activity (K562 [13]): Active; selectivity ratio [14]: 6.29; Activity (K562 [15]): Active; Activity (K562 [16]): Active |
| COc1ccc(N(C)c2nc(C(F)(F)F)nc3ccc(Cl)cc23)c([N+](=O)[O-])c1 | 6.21 | 5.88 | 5.65 | 5.59 | – | – | – | – |
| Cc1ccc2nc(C(F)(F)F)nc(N(C)c3ccc(C(F)(F)F)cc3)c2c1 | 5.54 | 5.85 | 5.71 | 5.58 | – | – | – | – |
| CCN(CC)c1cc(N(C)c2nc(C(F)(F)F)nc3ccc(F)cc23)ccc1OC | 5.08 | 4.93 | 4.67 | 4.88 | – | – | – | – |
| CN(c1ccc2c(ccn2C)c1)c1nc(C(F)(F)F)nc2ccc(Cl)cc12 | 6.47 | 7.05 | 6.16 | 6.86 | Active | Active | Active | Activity (HEL [5]): 28.5%; Ratio IC50 [6]: 3.45; Activity (HEL [7]): Active; Activity (HEL [8]): Active; Activity (HEL [10]): Active |
| COc1ccc(N(C)c2nc(C(F)(F)F)nc3cc(OC)c(OCCCN4CCCC4)cc23)cc1 | 6.35 | 5.81 | 5.62 | 6.76 | – | – | – | – |
